# Source: ChEMBL document CHEMBL1201862, “PubChem BioAssay data set” (2004)
# Counter-ions that a name gives are not always drawn.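 96-well plates; 48 h exposure; 5 concentrations. Endpoints by linear interpolation between flanking doses. Not reached: highest tested concentration assigned. GI50 is the concentration that inhibits growth by half.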 The source made the active and inactive calls. Cut-off read from the data, not from the text of the source: active = GI50 up to about 1.1 µM and inactive = higher.
# Key:
# Assay in all cases: NCI anticancer screen, dose series, 48 h
# A498 = system: A498
# RPMI-8226 = system: RPMI-8226
# K562 = system: K562
# LOX IMVI = system: LOX IMVI
# LXFL 529 = system: LXFL 529
# SK-OV-3 = system: SK-OV-3
# SK-MEL-28 = system: SK-MEL-28
# OVCAR-5 = system: OVCAR-5
# SN12C = system: SN12C
# HL-60 = system: HL-60
# U-251 = system: U-251
# OVCAR-4 = system: OVCAR-4
# UO-31 = system: UO-31
# OVCAR-3 = system: OVCAR-3
# A549 = system: A549
# HT-29 = system: HT-29
# MDA-MB-231 = system: MDA-MB-231
# MDA-N = system: MDA-N
# DU-145 = system: DU-145
# SR = system: SR
Structure (SMILES),GI50 (A498),GI50 (RPMI-8226),GI50 (K562),GI50 (LOX IMVI),GI50 (LXFL 529),GI50 (SK-OV-3),GI50 (SK-MEL-28),GI50 (OVCAR-5),GI50 (SN12C),GI50 (HL-60),GI50 (U-251),GI50 (OVCAR-4),GI50 (UO-31),GI50 (OVCAR-3),GI50 (A549),GI50 (HT-29),GI50 (MDA-MB-231),GI50 (MDA-N),GI50 (DU-145),GI50 (SR)
C=CCOC(=O)C1CCC(=O)N1C(=O)C(Cl)Cl (stereo unspecified),> 100 µM (inactive),> 100 µM (inactive),> 100 µM (inactive),> 100 µM (inactive),> 100 µM (inactive),> 100 µM (inactive),> 100 µM (inactive),> 100 µM (inactive),> 100 µM (inactive),> 100 µM (inactive),> 100 µM (inactive),> 100 µM (inactive),> 100 µM (inactive),> 100 µM (inactive),> 100 µM (inactive),> 100 µM (inactive),–,–,–,–
O=C(NCCc1ccccn1)c1ccc2cc(C(=O)N3CC(CCl)c4ccc([N+](=O)[O-])cc43)[nH]c2c1 (stereo unspecified),> 57.7 µM (inactive),> 100 µM (inactive),> 100 µM (inactive),> 100 µM (inactive),–,10.6 µM (inactive),> 100 µM (inactive),97.9 µM (inactive),> 65 µM (inactive),> 100 µM (inactive),18.5 µM (inactive),4.31 µM (inactive),> 49.8 µM (inactive),5.52 µM (inactive),> 72.9 µM (inactive),> 100 µM (inactive),> 33.1 µM (inactive),> 100 µM (inactive),> 52.4 µM (inactive),> 100 µM (inactive)
O=C1c2cccc3cccc(c23)C(=O)N1CCCNCCCCNCCCNCCCN1C(=O)c2cccc3cccc(c23)C1=O [BISNAPHTHALIMIDOPROPYL SPERMIDINE TRIHYDROBROMIDE],0.977 µM (active),0.355 µM (active),0.557 µM (active),0.316 µM (active),–,1.5 µM (inactive),1.39 µM (inactive),0.585 µM (active),0.521 µM (active),0.172 µM (active),0.338 µM (active),0.431 µM (active),6.5 µM (inactive),0.662 µM (active),0.301 µM (active),0.231 µM (active),1.06 µM (active),0.792 µM (active),0.371 µM (active),0.0787 µM (active)
NN/C(Cc1ccccc1)=N\NO,> 100 µM (inactive),–,85.7 µM (inactive),33.3 µM (inactive),55.1 µM (inactive),–,> 100 µM (inactive),> 100 µM (inactive),–,> 100 µM (inactive),–,> 100 µM (inactive),–,> 100 µM (inactive),> 100 µM (inactive),> 100 µM (inactive),–,–,–,–
CC(=O)N1c2ccccc2C(C)C1c1[nH]c2ccccc2c1C (stereo unspecified),22.7 µM (inactive),13 µM (inactive),19.5 µM (inactive),26.1 µM (inactive),–,19.7 µM (inactive),20.3 µM (inactive),14.9 µM (inactive),17.1 µM (inactive),18.6 µM (inactive),20.5 µM (inactive),23.4 µM (inactive),17.2 µM (inactive),19.5 µM (inactive),23.4 µM (inactive),20.2 µM (inactive),18.6 µM (inactive),19.9 µM (inactive),28.3 µM (inactive),13.9 µM (inactive)
COc1ccc(C(=O)Cn2c(C(C)=O)nc3ccccc32)cc1,67 µM (inactive),14.6 µM (inactive),4.4 µM (inactive),2.91 µM (inactive),–,14.7 µM (inactive),> 46.7 µM (inactive),44.4 µM (inactive),16.4 µM (inactive),3.41 µM (inactive),3.74 µM (inactive),14.2 µM (inactive),11.8 µM (inactive),6.31 µM (inactive),5.31 µM (inactive),23.4 µM (inactive),4.82 µM (inactive),10.7 µM (inactive),30.7 µM (inactive),4.92 µM (inactive)
Fc1ccc(C(=C2CCN(CCc3ccc4[nH]c(=S)[nH]c4c3)CC2)c2ccc(F)cc2)cc1,8.38 µM (inactive),2.73 µM (inactive),3.1 µM (inactive),4.9 µM (inactive),–,18.7 µM (inactive),1.51 µM (inactive),9.23 µM (inactive),4.52 µM (inactive),2.33 µM (inactive),4.48 µM (inactive),5 µM (inactive),2.67 µM (inactive),2.1 µM (inactive),3.94 µM (inactive),1.9 µM (inactive),4.43 µM (inactive),1.96 µM (inactive),2.98 µM (inactive),2.7 µM (inactive)
O=[N+]([O-])c1cc(-c2nc(-c3ccccc3)c(-c3ccccc3)[nH]2)c(O)c([N+](=O)[O-])c1,20.8 µM (inactive),27 µM (inactive),30.8 µM (inactive),23.6 µM (inactive),–,20.2 µM (inactive),31.7 µM (inactive),23.2 µM (inactive),26.5 µM (inactive),25.6 µM (inactive),14.8 µM (inactive),34 µM (inactive),18.2 µM (inactive),33 µM (inactive),34.4 µM (inactive),16.8 µM (inactive),22.4 µM (inactive),31.1 µM (inactive),21.9 µM (inactive),20.8 µM (inactive)
